Test results as given in US9505750B2, “5-aminocyclylmethyl-oxazolidin-2-one derivatives” (priority 2007, dated 2016).
Values after ≈ are worked out from the molar mass of the structure shown.

System: M. catarrhalis A894
Test: MIC determination by microdilution in cation-adjusted Mueller-Hinton Broth (NCCLS)
Format: cell-based
Conditions: Moraxella catarrhalis, pH 7.2-7.3
Description: These assays have been performed following the description given in “Methods for dilution Antimicrobial Susceptibility Tests for Bacteria that Grow Aerobically, 4th ed.; Approved standard: NCCLS Document M7-A4; National Committee for Clinical Laboratory Standards: Villanova, Pa., USA, 1997”. Minimal inhibitory concentrations (MICs; mg/l) were determined in cation-adjusted Mueller-Hinton Broth (BBL) by a microdilution method following NCCLS guidelines (National Committee for Clinical Laboratory Standards. Methods for Dilution Antimicrobial Susceptibility). The pH of the test medium was 7.2-7.3. All Example compounds were tested against several Gram-positive and Gram-negative bacteria.

| SMILES | MIC [µg/mL] |
| --- | --- |
| COc1ccc2ncc(F)c(CNC3CN(C[C@@H]4CN(c5ccc6c(c5)NC(=O)CO6)C(=O)O4)C3)c2n1 [Example 26, 6-((R)-5-{3-[(3-fluoro-6-methoxy-[1,5]naphthyridin-4-ylmethyl)-amino]-azetidin-1-ylmethyl}-2-oxo-oxazolidin-3-yl)-4H-benzo[1,4]oxazin-3-one] | ≤ 0.031 |
| COc1ccc2nccc(CNC3CN(C[C@@H]4CN(c5ccc6c(c5)NC(=O)CO6)C(=O)O4)C3)c2n1 [Example 27, 6-((R)-5-{3-[(6-methoxy-[1,5]naphthyridin-4-ylmethyl)-amino]-azetidin-1-ylmethyl}-2-oxo-oxazolidin-3-yl)-4H-benzo[1,4]oxazin-3-one] | ≤ 0.031 |
| COc1ccc2ncc(F)c(CNC3CN(C[C@@H]4CN(c5ccc6c(c5)NC(=O)CO6)C(=O)O4)C3)c2c1 [Example 28, 6-((R)-5-{3-[(3-fluoro-6-methoxy-quinolin-4-ylmethyl)-amino]-azetidin-1-ylmethyl}-2-oxo-oxazolidin-3-yl)-4H-benzo[1,4]oxazin-3-one] | ≤ 0.031 |
| COc1cnc2cccc(CNC3CN(C[C@@H]4CN(c5ccc6c(c5)NC(=O)CO6)C(=O)O4)C3)c2n1 [Example 34, 6-((R)-5-{3-[(3-methoxy-quinoxalin-5-ylmethyl)-amino]-azetidin-1-ylmethyl}-2-oxo-oxazolidin-3-yl)-4H-benzo[1,4]oxazin-3-one] | 0.063 (≈ 0.128 µM) |
| COc1ccc2nccc(NC3CCN(C[C@@H]4CN(c5ccc6c(c5)NC(=O)CO6)C(=O)O4)CC3)c2n1 [Example 35, 6-{(R)-5-[4-(6-methoxy-[1,5]naphthyridin-4-ylamino)-piperidin-1-ylmethyl]-2-oxo-oxazolidin-3-yl}-4H-benzo[1,4]oxazin-3-one] | ≤ 0.031 |
| COc1ccc2nccc(NC3CN(C[C@@H]4CN(c5ccc6c(c5)NC(=O)CS6)C(=O)O4)C3)c2n1 [Example 36, 6-{(R)-5-[3-(6-methoxy-[1,5]naphthyridin-4-ylamino)-azetidin-1-ylmethyl]-2-oxo-oxazolidin-3-yl}-4H-benzo[1,4]thiazin-3-one] | ≤ 0.031 |
| COc1ccc2nccc(NC3CN(C[C@@H]4CN(c5ccc6c(c5)NC(=O)CS6)C(=O)O4)C3)c2c1 [Example 37, 6-{(R)-5-[3-(6-methoxy-quinolin-4-ylamino)-azetidin-1-ylmethyl]-2-oxo-oxazolidin-3-yl}-4H-benzo[1,4]thiazin-3-one] | 0.125 (≈ 0.254 µM) |
| N#Cc1ccc2nccc(NC3CN(C[C@@H]4CN(c5ccc6c(c5)NC(=O)CS6)C(=O)O4)C3)c2c1 [Example 38, 4-{1-[(R)-2-oxo-3-(3-oxo-3,4-dihydro-2H-benzo[1,4]thiazin-6-yl)-oxazolidin-5-ylmethyl]-azetidin-3-ylamino}-quinoline-6-carbonitrile] | 0.125 (≈ 0.257 µM) |
| COc1ccc2nccc(NC3CCN(C[C@@H]4CN(c5ccc6c(c5)NC(=O)CS6)C(=O)O4)CC3)c2n1 [Example 40, 6-{(R)-5-[4-(6-methoxy-[1,5]naphthyridin-4-ylamino)-piperidin-1-ylmethyl]-2-oxo-oxazolidin-3-yl}-4H-benzo[1,4]thiazin-3-one] | ≤ 0.031 |
| COc1ccc2nccc(NC3CCN(C[C@@H]4CN(c5ccc6c(c5)NC(=O)CS6)C(=O)O4)CC3)c2c1 [Example 41, 6-{(R)-5-[4-(6-methoxy-quinolin-4-ylamino)-piperidin-1-ylmethyl]-2-oxo-oxazolidin-3-yl}-4H-benzo[1,4]thiazin-3-one] | 0.5 (≈ 0.962 µM) |
| COc1ccc2nccc(OC3CN(C[C@@H]4CN(c5ccc6c(c5)OCCO6)C(=O)O4)C3)c2c1 [Example 44, (R)-3-(2,3-dihydro-benzo[1,4]dioxin-6-yl)-5-[3-(6-methoxy-quinolin-4-yloxy)-azetidin-1-ylmethyl]-oxazolidin-2-one] | 8 (≈ 17.3 µM) |

Continued, values first:

| MIC [µg/mL] | SMILES |
| --- | --- |
| ≤ 0.031 | COc1ccc2nccc(NC3CN(C[C@@H]4CN(c5ccc6c(c5)NC(=O)CO6)C(=O)O4)C3)c2c1 [Example 25, 6-{(R)-5-[3-(6-methoxy-quinolin-4-ylamino)-azetidin-1-ylmethyl]-2-oxo-oxazolidin-3-yl}-4H-benzo[1,4]oxazin-3-one] |
| 0.063 (≈ 0.129 µM) | COc1ccc2nccc(CNC3CN(C[C@@H]4CN(c5ccc6c(c5)NC(=O)CO6)C(=O)O4)C3)c2c1 [Example 29, 6-((R)-5-{3-[(6-methoxy-quinolin-4-ylmethyl)-amino]-azetidin-1-ylmethyl}-2-oxo-oxazolidin-3-yl)-4H-benzo[1,4]oxazin-3-one] |
| 0.063 (≈ 0.132 µM) | COc1ccc2ncnc(OCC3CN(C[C@@H]4CN(c5ccc6c(c5)OCCO6)C(=O)O4)C3)c2c1 [Example 30, (R)-3-(2,3-dihydro-benzo[1,4]dioxin-6-yl)-5-[3-(6-methoxy-quinazolin-4-yloxymethyl)-azetidin-1-ylmethyl]-oxazolidin-2-one] |
| ≤ 0.031 | COc1ccc2ncnc(OC3CCN(C[C@@H]4CN(c5ccc6c(c5)NC(=O)CO6)C(=O)O4)CC3)c2c1 [Example 31, 6-{(R)-5-[4-(6-methoxy-quinazolin-4-yloxy)-piperidin-1-ylmethyl]-2-oxo-oxazolidin-3-yl}-4H-benzo[1,4]oxazin-3-one] |
| 0.063 (≈ 0.131 µM) | O=C1CSc2ccc(N3C[C@@H](CN4CC(Nc5ccnc6ccc(F)cc56)C4)OC3=O)cc2N1 [Example 39, 6-{(R)-5-[3-(6-fluoro-quinolin-4-ylamino)-azetidin-1-ylmethyl]-2-oxo-oxazolidin-3-yl}-4H-benzo[1,4]thiazin-3-one] |
| ≤ 0.031 | COc1ccc2nccc(NC3CN(C[C@@H]4CN(c5ccc6c(c5)OCCO6)C(=O)O4)C3)c2n1 [Example 42, (R)-3-(2,3-dihydro-benzo[1,4]dioxin-6-yl)-5-[3-(6-methoxy-[1,5]naphthyridin-4-ylamino)-azetidin-1-ylmethyl]-oxazolidin-2-one] |
| 0.25 (≈ 0.539 µM) | O=C1COc2ccc(N3C[C@@H](CN4CC(Nc5ccnc6ccc(F)cc56)C4)OC3=O)cc2N1 [Example 43, 6-{(R)-5-[3-(6-fluoro-quinolin-4-ylamino)-azetidin-1-ylmethyl]-2-oxo-oxazolidin-3-yl}-4H-benzo[1,4]oxazin-3-one] |
